What all share (assay): Cerep selectivity profiling, receptor antagonism
What all share (type): biochemical

In one assay the target is Serotonin 5-HT2A (Homo sapiens, UniProt P28223). Particulars: Serotonin 5-HT2A antagonism. Here is the method: (§1) The pharmacological specificity of EUC-001 was assessed using the commercially available selectivity profiling services provided by Cerep (Celle l’Evescault, France). Initially, the activity of EUC-001, at a fixed concentration of 10 μM, was evaluated in a range of assays to assess pharmacological selectivity relative to other cell-surface receptors, ion channels and transport proteins. Where any significant binding was detected, further assays were performed to quantify potential non-selective activity. […] In terms of this non-specific activity, the IC50s are approximately 3.6 log units greater than that required for NK1R antagonism.
(§2) The pharmacological specificity of EUC-001 was assessed using the commercially available selectivity profiling services provided by Cerep (Celle l’Evescault, France). For initial screens, the binding of EUC-001 (synthesized by Hoffmann-La Roche, Basel, Switzerland) at a fixed concentration of 10 μM was evaluated in a range of assays to assess pharmacological selectivity relative to other cell-surface receptors, ion channels and transport proteins.
(§3) For agonist activity, results are expressed as a percentage of the control agonist response induced by the selective NK1R agonist [Sar^9, Met(O2)^11]-substance P (100 nM) for a range of concentrations of EUC-001. Antagonist activity is expressed as a percentage change in the response induced by 3 nM [Sar^9, Met(O2)^11]-SP (R&D systems) across a range of concentrations of EUC-001. The EC50 values (concentration producing a half-maximal specific response) and IC50 values (concentration causing a half-maximal inhibition of the control specific agonist response) were determined by non-linear regression analysis of the concentration–response curves generated with mean replicate values using Hill equation curve fitting (Y = D + [(A − D)/(1 + (C/C50)nH)], where Y = specific response, D = minimum specific response, A = maximum specific response, C = compound concentration, and C50 = EC50 or IC50, and nH = slope factor). This analysis was performed using custom software developed at Cerep and validated by comparison with data generated by the commercial software SigmaPlot® 4.0 for Windows® (SPSS Inc., Chicago, IL, USA). For the antagonists, the apparent dissociation constants (KB) were calculated using the modified Cheng Prusoff equation (KB = IC50/(1 + (A/EC50A)), where A = concentration of reference agonist in the assay, and EC50A = EC50 value of the reference agonist).

The target in another assay is Histamine H2 (Homo sapiens, UniProt P25021). Here is the method: as §1, §2, §3
In a further assay the target is Serotonin 5-HT1B (Homo sapiens, UniProt P28222). Particulars: Serotonin 5-HT1B antagonism. Here is the method:
as §1, §2, §3

In assay [1] the target is T1, Muscarinic cholinergic M2 (Homo sapiens, UniProt P08172).
T1 sequence (P08172 1-466): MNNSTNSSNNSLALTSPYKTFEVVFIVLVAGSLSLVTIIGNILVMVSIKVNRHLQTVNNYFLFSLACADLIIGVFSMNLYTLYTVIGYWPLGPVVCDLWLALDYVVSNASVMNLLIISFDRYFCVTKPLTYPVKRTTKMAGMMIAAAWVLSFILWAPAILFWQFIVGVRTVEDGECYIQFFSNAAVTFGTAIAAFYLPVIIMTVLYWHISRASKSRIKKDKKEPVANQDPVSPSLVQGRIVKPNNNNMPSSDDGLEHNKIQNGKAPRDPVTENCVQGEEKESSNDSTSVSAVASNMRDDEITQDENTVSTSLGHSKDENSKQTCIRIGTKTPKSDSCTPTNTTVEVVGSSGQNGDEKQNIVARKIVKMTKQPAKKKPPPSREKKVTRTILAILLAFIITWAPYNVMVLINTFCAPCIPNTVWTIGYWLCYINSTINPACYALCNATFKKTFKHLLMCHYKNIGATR
Here is the method:
as §1, §2, §3

In assay [2] the target is T2, Muscarinic cholinergic M1 (Homo sapiens, UniProt P11229).
T2 sequence (P11229 1-460): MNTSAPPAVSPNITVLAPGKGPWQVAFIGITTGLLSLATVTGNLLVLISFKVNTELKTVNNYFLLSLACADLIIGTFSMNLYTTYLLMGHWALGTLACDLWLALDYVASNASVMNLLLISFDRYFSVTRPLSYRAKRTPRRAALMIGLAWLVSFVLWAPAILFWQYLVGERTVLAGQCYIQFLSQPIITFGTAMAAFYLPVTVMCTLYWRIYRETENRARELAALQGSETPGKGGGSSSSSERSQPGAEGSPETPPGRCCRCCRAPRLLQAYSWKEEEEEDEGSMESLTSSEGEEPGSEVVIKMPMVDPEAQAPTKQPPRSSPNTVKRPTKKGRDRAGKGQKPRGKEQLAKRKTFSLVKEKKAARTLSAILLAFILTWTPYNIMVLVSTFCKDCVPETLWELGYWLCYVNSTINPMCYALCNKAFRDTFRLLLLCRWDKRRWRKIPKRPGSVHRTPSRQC
Here is the method: as §1, §2, §3

Assay [3] has as its target Muscarinic cholinergic M3 (Homo sapiens, UniProt P20309). Here is the method:
as §1, §2, §3

For another assay, the target named is Adenosine A2A (Homo sapiens, UniProt P29274). Here is the method: as §1, §2, §3
The target of a further assay is Melanocortin MC4 (Homo sapiens, UniProt P32245). Here is the method: as §1, §2, §3
The target of the next assay is Serotonin 5-HT5A (Homo sapiens, UniProt P47898). The note with it: Serotonin 5-HT5A antagonism. Here is the method: as §1, §2, §3
In another assay the target is Dopamine D1 (Homo sapiens, UniProt P21728). Here is the method: as §1, §2, §3
The target of a further assay is Dopamine D2S (Homo sapiens, UniProt P14416). Here is the method:
as §1, §2, §3

For orientation: IC50 means the point on the concentration scale where inhibition reaches its midpoint.

Serotonin 5-HT5A, sequence (P47898 whole entry): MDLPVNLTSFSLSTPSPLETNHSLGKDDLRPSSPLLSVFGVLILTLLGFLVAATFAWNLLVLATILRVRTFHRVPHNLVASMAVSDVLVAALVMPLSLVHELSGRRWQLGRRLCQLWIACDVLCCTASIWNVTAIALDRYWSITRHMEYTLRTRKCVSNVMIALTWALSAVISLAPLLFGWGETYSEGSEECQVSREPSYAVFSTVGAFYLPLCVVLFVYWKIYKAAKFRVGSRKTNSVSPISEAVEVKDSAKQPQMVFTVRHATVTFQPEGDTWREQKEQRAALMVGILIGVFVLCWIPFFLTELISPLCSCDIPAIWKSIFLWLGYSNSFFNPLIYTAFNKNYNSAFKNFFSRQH
Dopamine D2S, sequence (P14416 1-414 isoform P14416-2): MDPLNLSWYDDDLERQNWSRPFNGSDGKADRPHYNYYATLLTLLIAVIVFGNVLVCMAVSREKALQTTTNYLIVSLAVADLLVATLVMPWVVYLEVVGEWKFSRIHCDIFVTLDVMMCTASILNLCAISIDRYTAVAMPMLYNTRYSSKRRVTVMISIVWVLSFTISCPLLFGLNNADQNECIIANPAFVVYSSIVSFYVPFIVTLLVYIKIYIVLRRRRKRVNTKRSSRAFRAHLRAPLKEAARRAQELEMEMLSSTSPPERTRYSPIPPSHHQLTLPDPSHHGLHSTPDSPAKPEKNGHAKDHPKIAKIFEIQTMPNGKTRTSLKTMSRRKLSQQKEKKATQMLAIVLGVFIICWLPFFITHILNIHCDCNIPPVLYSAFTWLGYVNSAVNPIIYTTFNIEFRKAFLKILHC
Serotonin 5-HT2A, sequence (P28223 whole entry): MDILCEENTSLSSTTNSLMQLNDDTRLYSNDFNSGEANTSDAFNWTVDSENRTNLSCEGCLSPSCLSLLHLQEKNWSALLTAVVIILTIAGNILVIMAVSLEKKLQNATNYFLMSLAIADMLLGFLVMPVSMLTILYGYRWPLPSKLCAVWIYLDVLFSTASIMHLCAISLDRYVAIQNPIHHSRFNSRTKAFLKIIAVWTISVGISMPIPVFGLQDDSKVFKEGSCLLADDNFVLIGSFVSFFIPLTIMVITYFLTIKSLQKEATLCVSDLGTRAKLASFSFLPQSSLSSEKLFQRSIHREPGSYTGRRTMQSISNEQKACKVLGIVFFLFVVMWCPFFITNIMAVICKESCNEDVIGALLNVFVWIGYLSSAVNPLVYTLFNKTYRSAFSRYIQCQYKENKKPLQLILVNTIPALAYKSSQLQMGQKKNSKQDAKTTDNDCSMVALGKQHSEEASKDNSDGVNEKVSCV
Adenosine A2A, sequence (P29274 whole entry): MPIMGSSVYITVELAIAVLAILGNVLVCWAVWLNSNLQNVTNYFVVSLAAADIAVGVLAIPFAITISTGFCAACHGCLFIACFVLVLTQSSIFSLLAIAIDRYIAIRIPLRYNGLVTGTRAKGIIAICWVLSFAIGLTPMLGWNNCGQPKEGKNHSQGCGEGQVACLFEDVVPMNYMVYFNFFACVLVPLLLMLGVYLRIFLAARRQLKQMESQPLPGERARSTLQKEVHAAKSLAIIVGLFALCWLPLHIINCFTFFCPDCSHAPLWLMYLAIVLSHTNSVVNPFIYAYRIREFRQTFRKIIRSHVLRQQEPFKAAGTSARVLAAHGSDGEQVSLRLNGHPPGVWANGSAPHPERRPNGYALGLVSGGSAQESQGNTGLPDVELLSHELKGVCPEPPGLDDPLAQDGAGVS
Muscarinic cholinergic M3, sequence (P20309 whole entry): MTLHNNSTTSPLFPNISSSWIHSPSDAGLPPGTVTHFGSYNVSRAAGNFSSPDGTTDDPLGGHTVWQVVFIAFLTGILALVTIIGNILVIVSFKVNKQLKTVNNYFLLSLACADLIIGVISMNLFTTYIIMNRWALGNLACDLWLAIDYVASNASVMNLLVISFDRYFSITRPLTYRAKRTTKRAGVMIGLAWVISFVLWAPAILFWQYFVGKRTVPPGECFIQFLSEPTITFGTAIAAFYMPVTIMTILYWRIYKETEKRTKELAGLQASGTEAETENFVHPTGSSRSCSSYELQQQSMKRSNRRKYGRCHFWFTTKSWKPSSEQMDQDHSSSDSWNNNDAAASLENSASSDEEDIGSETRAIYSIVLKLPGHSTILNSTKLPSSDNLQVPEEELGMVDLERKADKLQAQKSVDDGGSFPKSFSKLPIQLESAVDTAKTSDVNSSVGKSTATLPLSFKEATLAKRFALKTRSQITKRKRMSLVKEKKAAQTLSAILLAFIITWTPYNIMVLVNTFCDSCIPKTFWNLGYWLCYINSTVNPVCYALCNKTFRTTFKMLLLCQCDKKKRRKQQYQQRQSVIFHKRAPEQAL
Serotonin 5-HT1B, sequence (P28222 whole entry): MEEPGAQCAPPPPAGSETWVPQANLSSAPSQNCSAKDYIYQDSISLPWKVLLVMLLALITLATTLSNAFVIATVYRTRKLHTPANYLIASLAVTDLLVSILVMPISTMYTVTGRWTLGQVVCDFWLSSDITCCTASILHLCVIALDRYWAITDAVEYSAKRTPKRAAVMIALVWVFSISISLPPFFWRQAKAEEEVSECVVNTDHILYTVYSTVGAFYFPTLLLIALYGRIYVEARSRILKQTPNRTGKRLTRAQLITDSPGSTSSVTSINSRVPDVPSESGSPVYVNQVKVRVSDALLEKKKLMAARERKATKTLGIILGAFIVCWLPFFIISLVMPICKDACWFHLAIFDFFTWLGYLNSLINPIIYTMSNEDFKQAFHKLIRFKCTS
Melanocortin MC4, sequence (P32245 whole entry): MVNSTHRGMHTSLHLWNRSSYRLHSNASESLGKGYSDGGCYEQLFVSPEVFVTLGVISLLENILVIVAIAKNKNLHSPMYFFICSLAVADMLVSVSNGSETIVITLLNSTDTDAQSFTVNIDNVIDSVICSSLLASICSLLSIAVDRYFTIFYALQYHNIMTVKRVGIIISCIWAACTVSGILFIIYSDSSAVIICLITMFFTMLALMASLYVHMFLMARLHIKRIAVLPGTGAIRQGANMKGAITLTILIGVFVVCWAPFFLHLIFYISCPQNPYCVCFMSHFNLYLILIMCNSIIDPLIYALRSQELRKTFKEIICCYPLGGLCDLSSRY
Dopamine D1, sequence (P21728 whole entry): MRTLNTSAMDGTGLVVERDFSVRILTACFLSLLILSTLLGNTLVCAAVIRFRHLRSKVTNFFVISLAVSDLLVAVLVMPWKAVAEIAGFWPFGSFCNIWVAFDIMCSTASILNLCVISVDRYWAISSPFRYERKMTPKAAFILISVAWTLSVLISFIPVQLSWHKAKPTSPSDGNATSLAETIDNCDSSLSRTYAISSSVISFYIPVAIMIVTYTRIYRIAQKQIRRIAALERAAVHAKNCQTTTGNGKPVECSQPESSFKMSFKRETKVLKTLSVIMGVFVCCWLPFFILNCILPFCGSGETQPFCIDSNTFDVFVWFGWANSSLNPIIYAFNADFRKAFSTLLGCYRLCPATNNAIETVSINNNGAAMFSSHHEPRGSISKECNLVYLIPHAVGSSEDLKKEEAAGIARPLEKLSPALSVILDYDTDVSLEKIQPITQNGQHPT
Histamine H2, sequence (P25021 whole entry): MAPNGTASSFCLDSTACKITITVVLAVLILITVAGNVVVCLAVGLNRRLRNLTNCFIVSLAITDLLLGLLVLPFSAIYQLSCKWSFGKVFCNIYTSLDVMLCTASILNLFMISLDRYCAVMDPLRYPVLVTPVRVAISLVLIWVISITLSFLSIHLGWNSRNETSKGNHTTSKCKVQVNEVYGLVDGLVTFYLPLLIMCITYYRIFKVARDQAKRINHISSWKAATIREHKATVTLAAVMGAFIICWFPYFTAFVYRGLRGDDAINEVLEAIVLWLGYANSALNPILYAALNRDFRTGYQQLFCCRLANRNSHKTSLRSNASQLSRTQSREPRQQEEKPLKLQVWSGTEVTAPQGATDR

As for `Cc1ccccc1-c1cc(N2CCN(C)CC2)ncc1C(=O)N(C)Cc1cc(C(F)(F)F)cc(C(F)(F)F)c1` [EUC-001, N-(3,5-Bis-trifluoromethyl-benzyl)-N-methyl-6-(4-methyl-piperazine-1-yl)-4-o-tolyl-nicotinamide], the IC50 on Serotonin 5-HT2A is 15 µM; at Histamine H2 it was 16 µM; on Serotonin 5-HT1B, 6.1 µM; in assay [1] it was 30 µM; in [2] it was 3.3 µM; in [3], 3.3 µM. For the same compound, the IC50 at Adenosine A2A came to 30 µM; at Melanocortin MC4, 13 µM; at Serotonin 5-HT5A it was 4 µM; on Dopamine D1, 16 µM. Also, the “IC50 (M)” value on Dopamine D2S is “Not calculable”.
